Key:
[1] = system: H-82 lung carcinoma cells; assay: Cell viability, H-82 lung carcinoma cells; assay type: cell-based; settings: four days growth, methylene blue; FIG. 5A/5B
Protocol: (§1) Various cell lines were plated, administered a range of drug concentrations one time, allowed to grow for four days and then the number of cells present counted and expressed as a percentage of those present in the vehicle control plates. […] The number of live cells was expressed as a percentage of the total present. Each assay was done in duplicate.

[2] = Body weight of dosed animals; assay type: in vivo, rat; settings: various doses, throughout the test period; FIG. 9
Protocol: (§2) Male, weanling Sprague-Dawley rats were placed on Diet 11 (Suda et al, J. Nutr. 100:1049, 1970) (0.47% Ca)+AEK oil for one week followed by Diet 11 (0.02% Ca)+AEK oil for 3 weeks. The rats were then switched to the same diet containing 0.47% Ca for one week followed by two weeks on the same diet containing 0.02% Ca. Dose administration began during the last week on 0.02% calcium diet. Four consecutive intraperitoneal (ip) doses were given approximately 24 hours apart. Twenty-four hours after the last dose, blood was collected from the severed neck and the concentration of serum calcium determined by atomic absorption spectrometry as a measure of bone calcium mobilization. The first 10 cm of the intestine was also collected for intestinal calcium transport analysis using the everted gut sac method.

DU-145 prostate cells = assay: Cell viability, DU-145 prostate cells; assay type: cell-based; settings: four days growth, methylene blue; FIG. 6A/6B
Protocol: as §1

HL-60 leukemia cells [3] = assay: Cell viability, HL-60 leukemia cells; assay type: cell-based, human; settings: four days growth, methylene blue; FIG. 4A/4B
Protocol: as §1

[4] = system: 24-hydroxylase (24 Ohase) gene promoter in ROS 17/2.8 (bone) cells; assay: In vitro transcription assay (luciferase reporter); assay type: cell-based; settings: ROS 17/2.8 cells, 16 hours after dosing; FIG. 3; read-out: EC50, transcriptional activity in bone cells
Protocol: Transcription activity was measured in ROS 17/2.8 (bone) cells that were stably transfected with a 24-hydroxylase (24 Ohase) gene promoter upstream of a luciferase reporter gene (Arbour et al., 1998). Cells were given a range of doses. Sixteen hours after dosing the cells were harvested and luciferase activities were measured using a luminometer. RLU=relative luciferase units.

[5] = system: intestinal calcium transport; assay: Intestinal calcium transport (everted gut sac) in vitamin D-deficient rats; assay type: in vivo, rat; settings: 4 consecutive ip doses, FIG. 8
Protocol: as §2

HL-60 leukemia cells [6] = assay: HL-60 differentiation (nitro blue tetrazolium reduction); assay type: cell-based, human; settings: FIG. 2
Protocol: The study drugs were dissolved in ethanol and the concentrations determined using UV spectrophotometry. Serial dilutions were prepared so that a range of drug concentrations could be tested without changing the final concentration of ethanol (≦0.2%) present in the cell cultures.
Human promyelocytic leukemia (HL60) cells were grown in RPMI-1640 medium containing 10% fetal bovine serum. The cells were incubated at 37° C. in the presence of 5% CO2.
HL60 cells were plated at 1.2×10^5 cells/ml. Eighteen hours after plating, cells in duplicate were treated with drug. Four days later, the cells were harvested and a nitro blue tetrazolium reduction assay was performed (Collins et al., 1979; J. Exp. Med. 149:969-974). The percentage of differentiated cells was determined by counting a total of 200 cells and recording the number that contained intracellular black-blue formazan deposits. Verification of differentiation to monocytic cells was determined by measuring phagocytic activity (data not shown).

[7] = system: bone calcium mobilization; assay: Bone calcium mobilization (serum calcium) in vitamin D-deficient rats; assay type: in vivo, rat; settings: vitamin D-deficient rats on 0.02% Ca diet, FIG. 7
Protocol: as §2

[8] = molecular target: T1, full-length recombinant rat vitamin D receptor (Rattus norvegicus, UniProt P13053); assay: Vitamin D receptor binding, competition with [3H]-1,25(OH)2D3; settings: FIG. 1
T1 construct: Full-length recombinant rat receptor was expressed in E. coli; histidine tag (C); made in house; host or cells: E. coli BL21 (DE3) Codon Plus RIL
T1 sequence (P13053 1-423): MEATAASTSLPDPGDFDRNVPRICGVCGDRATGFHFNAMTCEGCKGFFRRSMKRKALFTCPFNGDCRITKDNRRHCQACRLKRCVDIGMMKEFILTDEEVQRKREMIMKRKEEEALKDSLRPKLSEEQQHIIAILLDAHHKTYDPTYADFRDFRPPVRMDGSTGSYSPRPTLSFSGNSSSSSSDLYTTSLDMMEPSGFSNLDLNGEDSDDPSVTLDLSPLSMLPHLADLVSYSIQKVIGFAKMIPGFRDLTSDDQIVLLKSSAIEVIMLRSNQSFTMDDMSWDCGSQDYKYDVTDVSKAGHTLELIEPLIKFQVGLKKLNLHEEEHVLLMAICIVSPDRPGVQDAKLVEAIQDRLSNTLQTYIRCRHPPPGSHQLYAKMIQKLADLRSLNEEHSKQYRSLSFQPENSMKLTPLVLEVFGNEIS
Protocol: Full-length recombinant rat receptor was expressed in E. coli BL21 (DE3) Codon Plus RIL cells and purified to homogeneity using two different column chromatography systems. The first system was a nickel affinity resin that utilizes the C-terminal histidine tag on this protein. The protein that was eluted from this resin was further purified using ion exchange chromatography (S-Sepharose Fast Flow). Aliquots of the purified protein were quick frozen in liquid nitrogen and stored at −80° C. until use. For use in binding assays, the protein was diluted in TEDK50 (50 mM Tris, 1.5 mM EDTA, pH7.4, 5 mM DTT, 150 mM KCl) with 0.1% Chaps detergent. The receptor protein and ligand concentration was optimized such that no more than 20% of the added radiolabeled ligand was bound to the receptor.
Radiolabeled and unlabeled ligands were added to 100 mcl of the diluted protein at a final ethanol concentration of ≦10%, mixed and incubated overnight on ice to reach binding equilibrium. The following day, 100 mcl of hydroxylapatite slurry (50%) was added to each tube and mixed at 10-minute intervals for 30 minutes. […] After the final wash, the pellets were transferred to scintillation vials containing 4 ml of Biosafe II scintillation cocktail, mixed and placed in a scintillation counter. Total binding was determined from the tubes containing only radiolabeled ligand.

C=C1CC[C@H](O)C/C1=C/C=C1\CCC[C@]2(C)[C@@H]([C@H](C)COC(=O)CBr)CC[C@@H]12 [AB-47, 22-bromoacetoxy-homopregnacalciferol]
cell viability of H-82 lung carcinoma cells [1]: kills H-82 lung carcinoma cells
change in body weight [2]: substantially maintain their body weight
cell viability of DU-145 prostate cells (DU-145 prostate cells): neither AB-47 nor 1,25(OH)2D3 have any significant effect
cell viability of HL-60 leukemia cells (HL-60 leukemia cells [3]): kills HL-60 leukemia cells
EC50 [4]: > 1000 nM
intestinal calcium transport activity ([5]; 35,100 pmol/rat): little to no activity
HL-60 cell differentiation activity (HL-60 leukemia cells [6]): does not promote HL60 differentiation
bone calcium mobilization (serum calcium) ([7]; 105,300 pmol/day ip for 4 consecutive days): little or no mobilization of bone calcium
Ki ([8]; full-length recombinant rat VDR): 3 nM
times less active than 1α,25-dihydroxyvitamin D3 in VDR binding ([8]; relative to natural hormone): 100 times

C=C1/C(=C\C=C2/CCC[C@]3(C)[C@@H]([C@H](C)CCCC(C)(C)O)CC[C@@H]23)C[C@@H](O)C[C@@H]1O [1,25(OH)2D3, 1α,25-dihydroxyvitamin D3, reference compound]
cell viability of H-82 lung carcinoma cells [1]: does not have any significant effect
cell viability of DU-145 prostate cells (DU-145 prostate cells): neither AB-47 nor 1,25(OH)2D3 have any significant effect
cell viability of HL-60 leukemia cells (HL-60 leukemia cells [3]): does not have any significant effect
intestinal calcium transport activity ([5]; 780 pmol): significant increase in activity
EC50 (HL-60 leukemia cells [6]; four days after treatment, read-out: EC50, HL-60 cell differentiation): 2 nM
bone calcium mobilization (serum calcium) ([7]; 780 pmol, 4 consecutive ip doses): significant increases in serum calcium

From patent publication US8754067B2, “22-haloacetoxy-homopregnacalciferol analogs and their uses” (Wisconsin Alumni Research Foundation, priority 2010, dated 2014)
